The nature of series [1]: In vitro liver microsomal stability. Format: in vitro ADME. Conditions: liver microsomes, pH 7.4, 30 m at 37 °C with NADPH regeneration system. On the procedure: Each compound (final 1 μM, duplicated) was added to each 0.1 M PBS solution (pH 7.4) containing liver microsome of three different species (human, dog, mouse). After a brief (5 m) incubation at 37 °C, the NADPH regeneration system (Promega Corp., Madison, WI, USA) was added, then the mixture was incubated at 37 °C for 30 m. The reaction was terminated by adding acetonitrile containing an internal standard (chlorpropamide), then the mixture was centrifuged at 15,000 rpm, 4 °C for 5 m. The supernatant solution was injected to LC/MS/MS system (TSQ Vantage Triple-Stage Quadrupole Mass Spectrometer, ThermoFisher Scientific, Waltham, MA, USA). The remaining substrates were analyzed with Xcalibur 4.4 s/w using an MRM (multiple reaction monitoring) quantitation mode.
(Liver microsomes are a subcellular fraction often used to study metabolism.)

The next series addresses T1, CYP1A2 (Homo sapiens, UniProt P05177).
T1 sequence (P05177 1-516): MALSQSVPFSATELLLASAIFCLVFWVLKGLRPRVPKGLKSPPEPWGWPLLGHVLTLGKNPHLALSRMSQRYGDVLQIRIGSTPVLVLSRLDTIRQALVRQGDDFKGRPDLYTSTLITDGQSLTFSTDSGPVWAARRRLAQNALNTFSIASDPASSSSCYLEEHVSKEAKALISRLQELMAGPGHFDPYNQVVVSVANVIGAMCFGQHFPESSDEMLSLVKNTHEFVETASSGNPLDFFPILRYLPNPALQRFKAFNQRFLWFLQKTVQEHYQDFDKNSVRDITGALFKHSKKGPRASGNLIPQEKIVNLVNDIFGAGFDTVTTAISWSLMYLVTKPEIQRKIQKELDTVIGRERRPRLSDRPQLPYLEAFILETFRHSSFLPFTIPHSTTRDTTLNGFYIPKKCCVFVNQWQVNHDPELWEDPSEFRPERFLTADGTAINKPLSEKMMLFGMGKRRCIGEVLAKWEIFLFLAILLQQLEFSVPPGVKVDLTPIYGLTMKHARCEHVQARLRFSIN
Description: CYP inhibition. Format: in vitro ADME. The method, then: Table 6 In vitro liver metabolic stability and activity against CYPs of potent analogues. | column: CYP % Activity at 10 μM / 1A2

The next series concerns the target T2, CAMK2g (Homo sapiens, UniProt Q13555).
T2 construct: purchased Reaction Biology Corp
Briefly: Kinome-wide inhibition profiling. Format: biochemical. The method, then:
(§1) In vitro CDK12/cyclinK assays for all compounds and in vitro kinome-wide inhibition profiling of 30d at 10 μM were performed by a CRO company (Reaction Biology Corp., San Diego, CA, USA).

The next series addresses T3, GRK6 (Homo sapiens, UniProt P43250).
T3 construct: purchased Reaction Biology Corp
Description: Kinome-wide inhibition profiling. Format: biochemical. On the procedure: as §1

The target in a further series is T4, HIPK1 (Homo sapiens, UniProt Q86Z02).
T4 construct: purchased Reaction Biology Corp
Briefly: Kinome-wide inhibition profiling. It is filed as biochemical. On the procedure:
as §1

The target in another series is T5, MAP4K4 (Homo sapiens, UniProt O95819).
T5 construct: purchased Reaction Biology Corp
Description: Kinome-wide inhibition profiling. Format: biochemical. The method, then:
as §1

The next series concerns the target T6, MAPKAPK5 (Homo sapiens, UniProt Q8IW41).
T6 construct: purchased Reaction Biology Corp
Briefly: Kinome-wide inhibition profiling. Format: biochemical. On the procedure:
as §1

Another series deals with T7, MKK4 (Homo sapiens, UniProt P45985).
T7 construct: purchased Reaction Biology Corp
T7 sequence (P45985 whole entry): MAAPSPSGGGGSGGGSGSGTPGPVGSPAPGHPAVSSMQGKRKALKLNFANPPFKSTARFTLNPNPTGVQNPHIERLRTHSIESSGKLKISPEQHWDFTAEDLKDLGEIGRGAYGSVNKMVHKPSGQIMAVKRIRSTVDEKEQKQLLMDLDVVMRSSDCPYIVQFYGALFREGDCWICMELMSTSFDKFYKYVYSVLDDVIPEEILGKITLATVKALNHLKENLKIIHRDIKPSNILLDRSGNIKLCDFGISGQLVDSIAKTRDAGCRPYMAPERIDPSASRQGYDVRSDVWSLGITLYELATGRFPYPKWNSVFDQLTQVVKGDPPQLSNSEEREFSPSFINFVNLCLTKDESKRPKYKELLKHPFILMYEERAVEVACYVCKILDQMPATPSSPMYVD
Briefly: Kinome-wide inhibition profiling. Format: biochemical. On the procedure: as §1

For a further series, the target named is T8, MST1R (Homo sapiens, UniProt Q04912).
T8 construct: purchased Reaction Biology Corp
Briefly: Kinome-wide inhibition profiling. It is filed as biochemical. The method, then:
as §1

Another series has as its target T9, MYLK4 (Homo sapiens, UniProt Q86YV6).
T9 construct: purchased Reaction Biology Corp
Description: Kinome-wide inhibition profiling. Format: biochemical. On the procedure:
as §1

The target in another series is T10, NEK9 (Homo sapiens, UniProt Q8TD19).
T10 construct: purchased Reaction Biology Corp
Briefly: Kinome-wide inhibition profiling. It is filed as biochemical. The method, then:
as §1

The next series concerns the target T11, NIM1 (Homo sapiens, UniProt Q8IY84).
T11 construct: purchased Reaction Biology Corp
Briefly: Kinome-wide inhibition profiling. It is filed as biochemical. On the procedure: as §1

A further series has as its target T12, PKN2 (Homo sapiens, UniProt Q16513).
T12 construct: purchased Reaction Biology Corp
Description: Kinome-wide inhibition profiling. Format: biochemical. The method, then: as §1

In another series the target is T13, SYK (Homo sapiens, UniProt P43405).
T13 construct: purchased Reaction Biology Corp
Description: Kinome-wide inhibition profiling. Format: biochemical. On the procedure:
as §1

The next series deals with T14, TESK1 (Homo sapiens, UniProt Q15569).
T14 construct: purchased Reaction Biology Corp
Briefly: Kinome-wide inhibition profiling. Format: biochemical. The method, then:
as §1

A further series has as its target T15, TSSK1B (Homo sapiens, UniProt Q9BXA7).
T15 construct: purchased Reaction Biology Corp
Briefly: Kinome-wide inhibition profiling. It is filed as biochemical. On the procedure:
as §1

For the next series, the target named is T16, TYK2 (Homo sapiens, UniProt P29597).
T16 construct: purchased Reaction Biology Corp
Briefly: Kinome-wide inhibition profiling. It is filed as biochemical. On the procedure:
as §1

The target in the next series is T17, VRK1 (Homo sapiens, UniProt Q99986).
T17 construct: purchased Reaction Biology Corp
Briefly: Kinome-wide inhibition profiling. It is filed as biochemical. On the procedure:
as §1

Another series concerns the target T18, WEE1 (Homo sapiens, UniProt P30291).
T18 construct: purchased Reaction Biology Corp
Briefly: Kinome-wide inhibition profiling. Format: biochemical. On the procedure:
as §1

Another series deals with CDC2L5. On the set-up: method as in HMS LINCS database. Conditions: 10 μM, ref HMS LINCS database; cited from earlier work.
The subject of a further series is PCTK1. On the set-up: method as in HMS LINCS database. The note with it: 10 μM, ref HMS LINCS database; cited from earlier work.
For the next series, the system named is CDK7. Set-up: method as in HMS LINCS database. Conditions: 10 μM, ref HMS LINCS database; cited from earlier work.
For a further series, the system named is PFTAIRE2. Set-up: method as in HMS LINCS database. The note with it: 10 μM, ref HMS LINCS database; cited from earlier work.
The next series concerns the target T19, TLK1 (Homo sapiens, UniProt Q9UKI8).
T19 construct: purchased Reaction Biology Corp
Set-up: method as in HMS LINCS database. Conditions: 10 μM, ref HMS LINCS database; cited from earlier work.

The test system of the next series is CDK5. Set-up: method as in HMS LINCS database. Conditions: 10 μM, ref HMS LINCS database; cited from earlier work.
The next series has as its target T20, CLK2 (Homo sapiens, UniProt P49760).
T20 construct: purchased Reaction Biology Corp
Set-up: method as in HMS LINCS database. Conditions: 10 μM, ref HMS LINCS database; cited from earlier work.

The target of the next series is T21, HIPK3 (Homo sapiens, UniProt Q9H422).
T21 construct: purchased Reaction Biology Corp
T21 sequence (Q9H422 whole entry): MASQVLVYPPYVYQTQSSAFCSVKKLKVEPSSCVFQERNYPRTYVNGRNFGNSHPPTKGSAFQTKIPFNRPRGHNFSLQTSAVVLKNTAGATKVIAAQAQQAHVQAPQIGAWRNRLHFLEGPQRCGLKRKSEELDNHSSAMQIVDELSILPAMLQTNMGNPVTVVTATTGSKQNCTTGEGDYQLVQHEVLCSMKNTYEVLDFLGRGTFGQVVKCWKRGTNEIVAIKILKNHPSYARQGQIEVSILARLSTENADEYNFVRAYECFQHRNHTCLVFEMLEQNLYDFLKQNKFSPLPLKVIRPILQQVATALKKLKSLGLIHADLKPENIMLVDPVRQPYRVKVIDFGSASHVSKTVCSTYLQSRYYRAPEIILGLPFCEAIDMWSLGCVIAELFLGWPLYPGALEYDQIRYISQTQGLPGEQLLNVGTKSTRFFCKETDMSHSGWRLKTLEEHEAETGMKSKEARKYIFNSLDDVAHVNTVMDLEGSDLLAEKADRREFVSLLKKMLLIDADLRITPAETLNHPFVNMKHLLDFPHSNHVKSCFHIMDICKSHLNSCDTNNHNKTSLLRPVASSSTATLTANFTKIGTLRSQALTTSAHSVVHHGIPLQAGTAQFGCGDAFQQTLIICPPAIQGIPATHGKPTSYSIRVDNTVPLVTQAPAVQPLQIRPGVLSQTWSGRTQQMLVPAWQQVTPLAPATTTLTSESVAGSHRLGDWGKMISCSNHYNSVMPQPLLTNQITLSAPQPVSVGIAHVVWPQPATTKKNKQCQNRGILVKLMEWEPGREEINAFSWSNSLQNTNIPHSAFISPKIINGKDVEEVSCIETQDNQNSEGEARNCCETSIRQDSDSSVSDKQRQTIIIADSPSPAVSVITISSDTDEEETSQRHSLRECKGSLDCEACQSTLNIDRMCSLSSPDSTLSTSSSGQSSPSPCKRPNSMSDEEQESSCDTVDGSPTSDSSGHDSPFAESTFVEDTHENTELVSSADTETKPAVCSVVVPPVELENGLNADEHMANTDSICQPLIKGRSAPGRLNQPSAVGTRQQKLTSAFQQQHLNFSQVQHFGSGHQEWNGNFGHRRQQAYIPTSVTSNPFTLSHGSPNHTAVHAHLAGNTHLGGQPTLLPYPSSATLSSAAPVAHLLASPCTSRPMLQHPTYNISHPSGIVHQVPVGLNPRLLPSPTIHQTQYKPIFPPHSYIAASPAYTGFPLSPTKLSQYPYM
Set-up: method as in HMS LINCS database. The note with it: 10 μM, ref HMS LINCS database; cited from earlier work.

The next series concerns the target T22, DYRK1A (Homo sapiens, UniProt Q13627).
T22 construct: purchased Reaction Biology Corp
Set-up: method as in HMS LINCS database. The note with it: 10 μM, ref HMS LINCS database; cited from earlier work.

For a further series, the target named is T23, PAK3 (Homo sapiens, UniProt O75914).
T23 construct: purchased Reaction Biology Corp
Set-up: method as in HMS LINCS database. Conditions: 10 μM, ref HMS LINCS database; cited from earlier work.

SMILES strings stand for the structures.

T9 sequence (Q86YV6 whole entry): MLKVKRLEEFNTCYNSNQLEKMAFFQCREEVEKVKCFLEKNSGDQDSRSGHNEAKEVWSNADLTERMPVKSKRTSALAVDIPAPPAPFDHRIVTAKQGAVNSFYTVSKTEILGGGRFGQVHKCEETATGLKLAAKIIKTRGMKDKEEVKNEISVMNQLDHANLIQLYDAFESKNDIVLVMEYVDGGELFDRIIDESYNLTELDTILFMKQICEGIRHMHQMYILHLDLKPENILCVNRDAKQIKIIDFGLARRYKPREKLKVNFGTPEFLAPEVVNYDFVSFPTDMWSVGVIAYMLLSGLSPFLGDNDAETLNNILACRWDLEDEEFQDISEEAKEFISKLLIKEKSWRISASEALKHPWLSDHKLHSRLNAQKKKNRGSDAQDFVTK
T19 sequence (Q9UKI8 whole entry): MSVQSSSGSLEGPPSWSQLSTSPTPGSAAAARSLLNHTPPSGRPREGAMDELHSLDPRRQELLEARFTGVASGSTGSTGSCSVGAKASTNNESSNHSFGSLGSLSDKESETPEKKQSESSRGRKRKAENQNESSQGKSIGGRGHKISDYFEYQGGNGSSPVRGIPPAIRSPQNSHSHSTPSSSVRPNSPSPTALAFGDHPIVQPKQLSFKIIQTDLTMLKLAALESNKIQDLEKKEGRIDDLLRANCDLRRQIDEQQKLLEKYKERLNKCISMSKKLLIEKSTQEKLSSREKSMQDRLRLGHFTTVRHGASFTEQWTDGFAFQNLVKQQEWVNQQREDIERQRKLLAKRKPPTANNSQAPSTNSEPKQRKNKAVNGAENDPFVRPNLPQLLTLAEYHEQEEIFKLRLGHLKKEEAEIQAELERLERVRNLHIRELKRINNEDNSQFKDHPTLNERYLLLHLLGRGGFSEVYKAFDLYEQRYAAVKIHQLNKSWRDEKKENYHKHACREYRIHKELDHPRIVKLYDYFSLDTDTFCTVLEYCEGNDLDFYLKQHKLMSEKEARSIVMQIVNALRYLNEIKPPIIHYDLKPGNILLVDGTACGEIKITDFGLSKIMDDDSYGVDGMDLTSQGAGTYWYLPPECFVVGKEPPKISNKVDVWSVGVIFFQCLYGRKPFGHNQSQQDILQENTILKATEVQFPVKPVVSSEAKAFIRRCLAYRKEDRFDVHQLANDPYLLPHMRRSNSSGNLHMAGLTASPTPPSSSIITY
T6 sequence (Q8IW41 whole entry): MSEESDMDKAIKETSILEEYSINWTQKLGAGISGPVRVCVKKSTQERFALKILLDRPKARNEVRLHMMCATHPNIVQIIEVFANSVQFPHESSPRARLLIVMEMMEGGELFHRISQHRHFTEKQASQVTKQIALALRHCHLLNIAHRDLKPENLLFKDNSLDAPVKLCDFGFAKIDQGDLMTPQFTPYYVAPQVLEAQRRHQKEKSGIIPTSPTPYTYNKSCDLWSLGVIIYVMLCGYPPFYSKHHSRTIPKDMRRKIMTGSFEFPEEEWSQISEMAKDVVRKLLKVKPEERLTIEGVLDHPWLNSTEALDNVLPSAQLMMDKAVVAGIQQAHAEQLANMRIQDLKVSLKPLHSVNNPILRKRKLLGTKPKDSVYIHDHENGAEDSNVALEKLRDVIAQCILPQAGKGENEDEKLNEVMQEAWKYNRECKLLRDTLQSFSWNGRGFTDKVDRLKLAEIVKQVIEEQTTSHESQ
T2 sequence (Q13555 whole entry): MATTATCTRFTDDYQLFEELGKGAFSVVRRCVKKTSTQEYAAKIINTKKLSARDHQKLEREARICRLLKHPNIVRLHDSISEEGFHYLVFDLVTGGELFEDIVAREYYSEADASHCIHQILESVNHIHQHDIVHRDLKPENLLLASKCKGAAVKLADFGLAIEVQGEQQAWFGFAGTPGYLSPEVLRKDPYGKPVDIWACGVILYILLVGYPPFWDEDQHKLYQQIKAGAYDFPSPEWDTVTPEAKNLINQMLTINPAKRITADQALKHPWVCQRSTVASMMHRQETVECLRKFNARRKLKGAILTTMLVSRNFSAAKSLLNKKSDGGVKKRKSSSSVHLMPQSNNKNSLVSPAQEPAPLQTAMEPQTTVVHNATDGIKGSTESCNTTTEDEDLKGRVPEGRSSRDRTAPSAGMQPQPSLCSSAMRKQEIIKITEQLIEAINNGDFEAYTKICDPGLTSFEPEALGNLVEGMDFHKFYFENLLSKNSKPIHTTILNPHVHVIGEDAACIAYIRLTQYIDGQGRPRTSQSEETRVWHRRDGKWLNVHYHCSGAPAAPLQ
T18 sequence (P30291 whole entry): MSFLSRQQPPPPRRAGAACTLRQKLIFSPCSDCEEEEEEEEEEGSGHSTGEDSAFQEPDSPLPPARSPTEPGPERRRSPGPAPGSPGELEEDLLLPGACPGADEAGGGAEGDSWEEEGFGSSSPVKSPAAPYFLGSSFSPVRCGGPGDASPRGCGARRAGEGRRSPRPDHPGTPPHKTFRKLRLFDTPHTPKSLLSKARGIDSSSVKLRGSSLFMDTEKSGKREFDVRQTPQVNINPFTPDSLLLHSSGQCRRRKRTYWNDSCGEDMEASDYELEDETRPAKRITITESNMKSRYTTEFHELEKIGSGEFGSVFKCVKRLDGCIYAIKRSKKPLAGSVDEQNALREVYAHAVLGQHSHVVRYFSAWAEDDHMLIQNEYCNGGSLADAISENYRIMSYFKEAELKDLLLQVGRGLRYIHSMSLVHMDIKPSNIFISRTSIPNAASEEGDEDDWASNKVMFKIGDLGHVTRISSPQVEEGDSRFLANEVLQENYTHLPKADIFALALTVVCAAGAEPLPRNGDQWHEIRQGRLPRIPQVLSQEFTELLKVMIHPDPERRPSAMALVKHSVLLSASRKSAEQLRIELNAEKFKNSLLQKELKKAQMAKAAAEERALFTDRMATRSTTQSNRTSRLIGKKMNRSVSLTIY
T3 sequence (P43250 whole entry): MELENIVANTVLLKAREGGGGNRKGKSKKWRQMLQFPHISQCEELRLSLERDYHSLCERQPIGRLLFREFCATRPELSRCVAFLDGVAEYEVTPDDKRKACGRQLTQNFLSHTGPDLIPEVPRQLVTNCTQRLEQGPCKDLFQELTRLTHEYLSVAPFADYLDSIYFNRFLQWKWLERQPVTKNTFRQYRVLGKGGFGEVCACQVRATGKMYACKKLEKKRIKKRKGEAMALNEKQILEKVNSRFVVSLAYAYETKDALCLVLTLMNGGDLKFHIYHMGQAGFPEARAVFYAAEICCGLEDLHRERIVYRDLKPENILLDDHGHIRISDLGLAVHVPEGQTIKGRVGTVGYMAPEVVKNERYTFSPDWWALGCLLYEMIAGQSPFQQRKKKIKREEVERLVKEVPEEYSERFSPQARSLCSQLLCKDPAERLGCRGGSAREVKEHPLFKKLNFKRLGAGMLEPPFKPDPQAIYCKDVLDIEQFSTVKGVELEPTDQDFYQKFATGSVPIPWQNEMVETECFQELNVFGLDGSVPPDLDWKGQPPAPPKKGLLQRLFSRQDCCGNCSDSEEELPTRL

The share remaining is the share of the starting amount still present when the sample was taken. Read a high share remaining as less turnover. As a reminder, the remaining activity is the signal under treatment as a percentage of the control signal. What is called inhibition is the relative decrease from the control value, in per cent. A higher inhibition goes with strong suppression. `CCn1cnc2c(NCc3ccc(-c4ccccn4)nc3)nc(-c3ccc(N)nc3)nc21` [Compound 30d, N-([2,2′-Bipyridin]-5-ylmethyl)-2-(6-aminopyridin-3-yl)-9-ethyl-9H-purin-6-amine]: the fraction remaining at 30 min, 1 μM in [1] (dog) came to 46.2%; in [1] (human), 64.8%; in series [1] (mouse), 49.9%. Besides, the “CYP % Activity at 10 μM 1A2” value at CYP1A2 was determined as 74.7%. For the same molecule, the remaining activity at 10 µM on CAMK2g worked out at 105%; on GRK6, 80.6%; on HIPK1, 93%; on MAP4K4 it was 103%; at MAPKAPK5 it was 103%; at MKK4 it was 96.4%. Also, the remaining activity at 10 µM on MST1R is 86.8%; at MYLK4 it was 4.1%; at NEK9, 90%; on NIM1, 76%; at PKN2, 85.8%; at SYK it was 48.4%. The remaining activity at 10 µM at TESK1 was found to be 93.1%; at TSSK1B, 38%; on TYK2 it was 90.7%; at VRK1, 87.3%; on WEE1 it was 90.2%. Besides, on MYLK4, the inhibition at 10 µM was > 95%.
`CCn1cnc2c(NCc3ccc(-c4ccccn4)nc3)nc(-c3cnc(N)nc3)nc21` [Compound 30e, N-([2,2′-Bipyridin]-5-ylmethyl)-2-(2-aminopyrimidin-5-yl)-9-ethyl-9H-purin-6-amine]: the amount remaining at 30 min, 1 μM in [1] (dog) was 67.6%; in series [1] (human) it was 100%; in series [1] (mouse) it was 85%. Also, the “CYP % Activity at 10 μM 1A2” value at CYP1A2 amounted to 87.6%.
Consider `CCc1cnn2c(NCc3ccc[n+]([O-])c3)cc(N3CCCC[C@H]3CCO)nc12` [Dinaciclib], for which the “% control” value in the series with CDC2L5 was 0.3%; in the series on PCTK1, 0.3%; in the series on CDK7, 0.4%; in the series on PFTAIRE2, 0.4%; on TLK1 it was 0.9%; with CDK5 it was 1.8%. The “% control” value is 4.2% at CLK2, 4.4% at HIPK3, 6.0% at DYRK1A and 7.8% on PAK3.

(Values after PMC9506414, “Novel 2,6,9-Trisubstituted Purines as Potent CDK Inhibitors Alleviating Trastuzumab-Resistance of HER2-Positive Breast Cancers” (Pharmaceuticals, 2022).)
